Data from PubChem BioAssay (NCI).
Values joined by “and” are separate entries in the source; they are usually repeats but may differ in a detail not shown here. Equal entries are not always repeated.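 How tested: cells in 96-well plates exposed to compound for 48 hours at five concentrations. GI50 marks 50% less growth. TGI marks complete inhibition of growth.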

Legend:
Assay in all cases: NCI-60 cell line screen, 48 h
CAKI-1 renal = test system: CAKI-1 renal
EKVX NSCLC = test system: EKVX NSCLC
HCT-116 colon = test system: HCT-116 colon
HOP-92 NSCLC = test system: HOP-92 NSCLC
MALME-3M melanoma = test system: MALME-3M melanoma
NCI-H226 lung = test system: NCI-H226 lung
NCI/ADR-RES ovarian = test system: NCI/ADR-RES ovarian
OVCAR-3 ovarian = test system: OVCAR-3 ovarian
PC-3 prostate = test system: PC-3 prostate
RPMI-8226 leukemia = test system: RPMI-8226 leukemia

SMILES	TGI (CAKI-1 renal)	TGI (EKVX NSCLC)	TGI (HCT-116 colon)	TGI (HOP-92 NSCLC)	TGI (MALME-3M melanoma)	TGI (NCI-H226 lung)	TGI (NCI/ADR-RES ovarian)	TGI (OVCAR-3 ovarian)	TGI (PC-3 prostate)	TGI (RPMI-8226 leukemia)	GI50 (CAKI-1 renal)	GI50 (EKVX NSCLC)	GI50 (HCT-116 colon)	GI50 (HOP-92 NSCLC)	GI50 (MALME-3M melanoma)	GI50 (NCI-H226 lung)	GI50 (NCI/ADR-RES ovarian)	GI50 (OVCAR-3 ovarian)	GI50 (PC-3 prostate)	GI50 (RPMI-8226 leukemia)
O=c1[nH]c(=S)[nH]c(-c2ccccc2)c1Cc1c(O)ccc2ccccc12	> 100 µM	64.4 µM	74.4 µM	> 100 µM	> 100 µM	82.1 µM	> 100 µM	> 100 µM	> 100 µM	67.6 µM	–	–	–	–	–	–	–	–	–	–
O=C(c1ccco1)c1c(C(F)(F)F)n([O-])c2cc(F)c(F)cc2[n+]1=O	1.37 µM	1.26 µM	0.386 µM	3.21 µM	4.21 µM	2.35 µM	0.179 µM	1.35 µM	0.435 µM	0.341 µM	0.44 µM	0.57 µM	0.149 µM	1.49 µM	2.06 µM	0.926 µM	0.0648 µM	0.193 µM	0.147 µM	–
N#Cc1cc2c(cc1Cl)Sc1nnc(Nc3cccc4ccccc34)n1S2(=O)=O	10.9 µM	39.6 µM	14.2 µM	30.1 µM	5.75 µM	20.9 µM	4.4 µM	3.47 µM	18 µM	7.77 µM	3.14 µM	20.2 µM	3.98 µM	14.7 µM	2.03 µM	7.83 µM	2.11 µM	1.77 µM	4.75 µM	2.66 µM
C#CCNC(=O)NC(CCCCNC(=O)OCc1ccccc1)C(=O)OCc1ccccc1 (stereo unspecified)	> 100 µM	> 100 µM	> 100 µM	54 µM	61 µM	> 100 µM	> 100 µM	> 100 µM	> 100 µM	70.9 µM	–	–	–	–	–	–	–	–	–	–
COc1ccc(OC)c(Cc2cnc3nc(N)nc(N)c3c2C)c1	> 81.9 µM	> 83.3 µM	30.4 µM	39.6 µM	13.7 µM	33.3 µM	> 100 µM	10.9 µM	27.7 µM	15.8 µM	–	–	–	–	–	–	–	–	–	–
NCc1ccc(-c2nc(-c3ccc(Cl)c(O)c3)c(-c3ccncc3)[nH]2)cc1	> 25 µM	> 25 µM	> 25 µM	19.6 µM	11.2 µM	> 25 µM	> 25 µM	> 25 µM	> 25 µM	> 25 µM	> 25 µM	> 25 µM	15.9 µM	2.1 µM	2.72 µM	> 25 µM	> 25 µM	> 25 µM	> 25 µM	> 25 µM
O=C1/C(=C/c2ccccc2[N+](=O)[O-])COc2ccc(O)cc21	2.91 µM	14.5 µM	1.57 µM	12.5 µM	4.62 µM	10.9 µM	8.09 µM	1.76 µM	10.8 µM	5 µM	1.03 µM	3.22 µM	0.352 µM	2.75 µM	1.65 µM	2.4 µM	1.99 µM	0.523 µM	2.01 µM	0.612 µM
CN1CCCC1c1cccnc1.O=C(O)c1ccccc1O.O=C([O-])c1ccccc1[OH2+].O=C([O-])c1ccccc1[OH2+].[Mn+2] (stereo unspecified)	> 100 µM	> 100 µM	> 100 µM	> 100 µM	76.6 µM	> 100 µM	> 100 µM	70.5 µM	> 100 µM	> 100 µM	> 100 µM	> 100 µM	> 100 µM	> 100 µM	33.1 µM	> 100 µM	> 100 µM	21.3 µM	58.1 µM	77.9 µM
N#Cc1c(NC(=O)c2ccccc2F)sc2c1CCCC2	> 25 µM	> 25 µM	> 25 µM	> 25 µM	> 25 µM	> 25 µM	> 25 µM	> 25 µM	> 25 µM	> 25 µM	> 19.4 µM	> 25 µM	> 25 µM	> 25 µM	> 25 µM	> 25 µM	11.5 µM	> 25 µM	> 25 µM	> 25 µM
N#CCNC(=O)c1ccc(-c2ccnc(Nc3ccc(N4CCOCC4)cc3)n2)cc1	3.72 µM and 3.03 µM	> 10 µM	> 24.8 µM	9.61 µM and 10.7 µM	> 10 µM and 18.1 µM	7.01 µM and 21.1 µM	> 100 µM	> 10 µM and 46.6 µM	> 10 µM and 38.8 µM	> 31.9 µM	0.513 µM and 0.273 µM	> 10 µM	1.49 µM and 1.19 µM	0.511 µM and 0.153 µM	6.44 µM and 1.26 µM	0.754 µM and 0.531 µM	> 10 µM and 12.4 µM	7.77 µM and 5.78 µM	3.77 µM and 1.77 µM	3.08 µM and 2.88 µM
O=C(c1cc(Cc2n[nH]c(=O)c3ccccc23)ccc1F)N1CCN(C(=O)C2CC2)CC1	48.1 µM and > 100 µM	> 100 µM	> 100 µM	> 100 µM	> 100 µM	> 100 µM	> 100 µM	> 100 µM	> 100 µM	> 100 µM	16.5 µM and 54.5 µM	18 µM and 77.7 µM	> 100 µM and 99.1 µM	–	62.4 µM and > 100 µM	41.3 µM and 48.8 µM	> 100 µM	32.8 µM and > 77.2 µM	43.1 µM and > 71.4 µM	30.5 µM and 35.7 µM
Nc1nc(-c2ccc(Cl)cc2)nc2c1sc(=S)n2-c1ccccc1	84.5 µM	14.7 µM	10.9 µM	6.25 µM	5.67 µM	6.73 µM	19.8 µM	7.64 µM	> 100 µM	> 100 µM	9.17 µM	2.75 µM	2.94 µM	2.37 µM	2.59 µM	2.78 µM	3.7 µM	2.75 µM	17.3 µM	5.54 µM
C/C(=N\NC(=S)N1CCN(c2ccccn2)CC1)c1ncccn1	16 µM	5.2 µM and 12.8 µM	5.05 µM and 14.7 µM	5.91 µM and 3.08 µM	5.93 µM and 18.3 µM	5.78 µM and 11 µM	3.95 µM and 0.403 µM	7.5 µM and 15.3 µM	15.9 µM	2.94 µM and 12.1 µM	0.447 µM	0.0494 µM	–	0.208 µM	0.55 µM	1.71 µM	–	0.213 µM	0.0298 µM	< 0.0205 µM
Cc1ccc(Cl)cc1-n1c(C)nc2c(cnn2-c2ccnc3c(C(F)(F)F)cccc23)c1=O	> 100 µM	> 100 µM	> 100 µM	> 100 µM	> 100 µM	> 100 µM	> 100 µM	> 100 µM	> 100 µM	> 100 µM	> 100 µM	> 100 µM	> 100 µM	> 100 µM	> 100 µM	> 100 µM	> 100 µM	> 100 µM	> 100 µM	> 100 µM
COc1cc(C(=O)/C=C/c2c(C(F)(F)F)nc3ccccn23)cc(OC)c1OC	4.44 µM	6.78 µM	3.21 µM	9.94 µM	3.35 µM	21.7 µM	21.8 µM	3.61 µM	32.8 µM	> 100 µM	1.82 µM	2.37 µM	1.26 µM	2.65 µM	1.57 µM	3.55 µM	1.41 µM	1.83 µM	3.8 µM	2.91 µM
COc1ccc(-c2[nH]c3ccccc3c2/C=C(\C#N)S(=O)(=O)c2ccccc2)cc1	> 31.6 µM	> 100 µM	> 38 µM	> 20.6 µM	> 82 µM	> 66.4 µM	> 25.8 µM	0.673 µM	> 68.8 µM	> 100 µM	0.975 µM	1.25 µM	0.391 µM	1.43 µM	1.22 µM	2.02 µM	0.427 µM	0.241 µM	0.533 µM	2.14 µM
Nc1nc(C(=O)O)c(N=Nc2ccccc2)c(=O)[nH]1	> 100 µM	> 100 µM	> 100 µM	> 100 µM	> 100 µM	> 100 µM	> 100 µM	> 100 µM	> 100 µM	> 100 µM	–	–	–	–	–	–	–	–	–	–
Cc1cc(O)c2c3c(ccc2c1)C(=O)c1c(O)cccc1C3=O	> 100 µM	> 100 µM	> 100 µM	> 100 µM	0.0846 µM	> 100 µM	> 100 µM	3.45 µM	> 100 µM	> 100 µM	–	–	–	–	–	–	–	–	–	–
[Cl][Cu][Cl]	> 10 µM	> 10 µM	> 10 µM	> 10 µM	> 10 µM	> 10 µM	> 10 µM	> 10 µM	> 10 µM	> 10 µM	> 10 µM	> 10 µM	> 10 µM	> 10 µM	> 10 µM	> 10 µM	> 10 µM	> 10 µM	> 10 µM	> 10 µM
Nc1nc2ccccc2c2c1S(=O)(=O)c1ccc(Cl)cc1C2=O	> 50 µM	> 50 µM	32 µM	3.63 µM	4.25 µM	17.3 µM	6.27 µM	3.33 µM	> 50 µM	3.31 µM	1.59 µM	1.84 µM	1.87 µM	0.542 µM	1.23 µM	2.14 µM	1.46 µM	1.14 µM	0.89 µM	0.719 µM
c1ccc(CN2COc3c(ccc4c5c(ccc34)CN(Cc3ccccc3)CO5)C2)cc1	> 100 µM	> 100 µM	> 100 µM	> 100 µM	> 100 µM	> 100 µM	> 100 µM	> 100 µM	> 100 µM	> 100 µM	–	–	–	–	–	–	–	–	–	–
